# Measured values: patent publication US5750391A, “Filariid nematode cysteine protease proteins” (Heska Corporation, priority 1995, dated 1998)
# “Also recorded” adds a separate entry of the source. Like-named read-outs stand apart in the source and are kept apart here.
# What was measured:
# [1] = system: astacin; conditions: cited from earlier work
# [2] = system: D. immitis larvae; experiment: Effect of protease inhibitors on larval molting (L3 cultured in NI medium); assay type: cell-based, Dirofilaria immitis; conditions: for % molt: L3 larvae, 72 hours, 37° C.; for inhibition at 1000 µM / inhibition at 2500 µM / inhibition at 5000 µM: Dirofilaria immitis, 72 h, read-out: % reduction (of molt vs control)
SMILES,inhibition of astacin activity [1],% molt ([2]; 1.0 mM inhibitor) [%],% molt ([2]; 2.5 mM inhibitor) [%],% molt ([2]; 5.0 mM inhibitor) [%],inhibition at 1000 µM [2] [%],inhibition at 2500 µM [2] [%],inhibition at 5000 µM [2] [%],movement of treated larvae compared to controls ([2]; observed daily throughout the study),"ability of the larvae to molt ([2]; treatment of L3, 1 to 5 mM)",ability of the larvae to molt [2],condition of treated larvae [2],movement of treated larvae compared to controls [2]
"O=C(O)CN(CCN(CC(=O)O)CC(=O)O)CC(=O)O [EDTA, ethylene diamine tetraacetic acid]",inhibited,,,,,,,,,,,
CC(C)C[C@H](NC(=O)[C@@H](O)[C@H](N)Cc1ccccc1)C(=O)O [Bestatin],,60.0,34.8,4.9,27.3,57.9,94.1,moved much more slowly,inhibit molting; also recorded: significantly reduces the ability of the larvae to molt,,,
CC(C)C[C@H](NP(=O)(O)O[C@@H]1O[C@@H](C)[C@H](O)[C@@H](O)[C@H]1O)C(=O)N[C@@H](Cc1c[nH]c2ccccc12)C(=O)O [Phosphoramidon],not by phosphoramidon,,,,48.4,85.1,100,,,inhibit molting; also recorded: significantly reduces the ability of the larvae to molt,in poor shape,very active
"c1cnc2c(c1)ccc1cccnc12 [1,10-phenanthroline]",inhibited,,,,,,,,,,,
